{
  "source": "patent US20180203025A1",
  "about": "“HDL THERAPY MARKERS” (Cerenis Therapeutics Holding SA, priority 2014, published 2018)",
  "key": {"[1]": {"tested_on": "J774 macrophages", "test": "Cytotoxicity in J774 efflux study", "type": "cell-based, mouse", "settings": "Study N; 30 mM; 6 hours", "protocol": "J774 were seeded on 24 well plates (60,000 cells/well) and loaded with ^3H-cholesterol oxidized-LDL in DMEM 2.5% FCS. After a 24 hour equilibration (DMEM), β-cyclodextrin (0.03, 0.1, 0.3, 1, 3, 10 and 30 mM) was added for 6 hours. The percentage of efflux, assayed using the protocol of Section 8.3.6, is determined as: Medium DPM/(Medium DPM+Cell DPM)*100."}, "[2]": {"tested_on": "LXR mRNA in mouse macrophages (J774)", "test": "LXR gene expression (real-time PCR) in J774 macrophages", "type": "cell-based", "settings": "Study P; 0.03 to 30 mM; 6 hours", "protocol": "(§1) The mRNA regulation of those genes expressing ABCA1, ABCG1 and SR-BI is linked to nuclear proteins as LXR, SREBP1 and SREBP2. […] Gene expression was assayed using the protocols described in Sections 8.3.2 (RNA extraction); 8.3.4 (reverse transcription), and 8.3.5 (qPCR). SREBP-1, SREBP-2 and LXR gene expression levels were determined with Taqman probe (Mm01138344.m1, Mm01306292.m1, Mm00443451.m1 respectively) according to the manufacturer's protocol. The reference gene used is HPRT1 (Taqman probe: Mm00446968.m1).\n(§2) This study used β-cyclodextrin to examine the effect of β-cyclodextrin on LXR, SREBP1 and SREBP2 mRNA expression in J774 macrophages. J774 were seeded on 6 well plates (300,000 cells/well). β-cyclodextrin (0.03, 0.1, 0.3, 1, 3, 10 and 30 mM) was added for 6 hours on the macrophages and the RNA were extracted with the RiboPure™ kit according to the manufacturer's protocol. Gene expression was assayed using the protocols described in Sections 8.3.2 (RNA extraction); 8.3.4 (reverse transcription), and 8.3.5 (qPCR). SREBP-1, SREBP-2 and LXR gene expression were determined with Taqman probe (Mm01138344.m1, Mm01306292.m1, Mm00443451.m1 respectively) according to the manufacturer's protocol. The reference gene used is HPRT1 (Taqman probe: Mm00446968.m1)."}, "[3]": {"tested_on": "SREBP-2 mRNA in mouse macrophages (J774)", "test": "SREBP-2 gene expression (real-time PCR) in J774 macrophages", "type": "cell-based", "settings": "Study P; 0.03 to 30 mM; 6 hours", "protocol": "as §1, §2"}, "[4]": {"tested_on": "ABCA1 in mouse ligatured carotids", "test": "Western blot of ABCA1 expression in ligatured carotids", "type": "in vivo", "protocol": "Ligatured carotids previously extracted with chloroform:methanol were solubilized in NAOH 0.1N (100 μL/carotid). The solution was briefly sonicated and centrifuged at 15,000×g for 10 minutes. The protein concentration was determined with Bradford assay and 40 μg of sample were loaded on SDS-PAGE. The ABCA1 expression (ab7360—dilution 1/1000) was quantified using imageJ® software."}, "[5]": {"tested_on": "SR-BI in mouse liver", "test": "SR-BI protein content in mouse liver", "type": "in vivo", "settings": "24 hours after the last injection; increasing concentrations", "protocol": "This study examined the SR-BI and ABCA1 protein content in the liver 24 hours after the last injection of CER-001. A piece of liver (50 mg) was lysed in PBS (500 μL) by brief sonication. The sample was centrifuged (800×g for 10 minutes) and the pellet was discarded. The supernatant was centrifuged for 30 minutes at 16,000×g at 4° C. and the pellet was solubilized with PBS 1% Triton X100 (200 μL). 10 μg of solubilized pellet was loaded on SDS PAGE 10% and ABCA1 expression (ab7360—dilution 1/1000) or SR-BI expression (ab24603—dilution 1/1000) was quantified using imageJ® software."}, "[6]": {"test": "CHI SQUARE plasma ApoA-I, phospholipid and total cholesterol after infusion", "type": "in vivo, human", "text": "504 subjects presenting with acute chest pain or other angina equivalent symptoms, indicative of a diagnosis of ST segment elevation myocardial infarction, non-ST elevation myocardial infarction or unstable angina were enrolled. To be eligible, subjects must have angiographic evidence of coronary artery disease as defined by at least one lesion in any of the three major native coronary arteries that has >20% reduction in lumen diameter by angiographic visual estimation or prior history of percutaneous coronary intervention (“PCI”). The target vessel for PCI was not the target coronary artery for research IVUS, and any vessel with previous PCI could not be used as the target coronary artery."}, "[7]": {"tested_on": "SR-BI mRNA in HepG2 (human hepatocytes)", "test": "SR-BI mRNA in HepG2 hepatocytes", "type": "cell-based", "settings": "Study K, 0.25, 25 and 250 μg/mL, 6 hours", "protocol": "HepG2 (human hepatocytes) and Hepa1-6 (mouse hepatocytes) were seeded on 6 well plates (300,000 cells/well) in DMEM 10% FCS. […] Gene expression was assayed using the protocols described in Sections 8.3.2 (RNA extraction); 8.3.4 (reverse transcription), and 8.3.5 (qPCR). ABCA1 (Taqman probe Hs01059118.m1 and Mm00442646.m1 for respectively HepG2 and Hepa1-6) and SR-BI (Taqman probe Hs00969821.m1 and Mm00450234.m1 for respectively HepG2 and Hepa1-6) expression was determined according to the manufacturer's protocol. The reference gene used is HPRT1 (Taqman probe: Mm00446968.m1) for Hepa1-6 and GAPDH (Taqman probe: Hs03929097.g1) for HepG2 cells."}, "[8]": {"tested_on": "TAV and PAV of the target coronary artery", "test": "CHI SQUARE IVUS post-hoc analysis by SAHMRI (second approach)", "type": "in vivo, human", "protocol": "A post-hoc analysis of the IVUS data was performed by the South Australian Health & Medical Research Institute (SAHMRI).\nIn this case there were similar frame-counts between baseline and follow-up. The number of frames selected were normally distributed (FIG. 3)."}, "[9]": {"settings": "cited from earlier work"}, "[10]": {"settings": "Infusion 1, preserved at Infusion 6"}, "[11]": {"settings": "baseline PAV equal to or greater than 30, mITT, 3 mg/kg (n = 58)"}, "[12]": {"settings": "baseline PAV equal to or greater than 30, mITT, 6 mg/kg (n = 78)"}, "[13]": {"settings": "baseline PAV equal to or greater than 30, mITT, 12 mg/kg (n = 66)"}},
  "data": [
    {"compound": "OC[C@H]1O[C@@H]2O[C@H]3[C@H](O)[C@@H](O)[C@@H](O[C@H]4[C@H](O)[C@@H](O)[C@@H](O[C@H]5[C@H](O)[C@@H](O)[C@@H](O[C@H]6[C@H](O)[C@@H](O)[C@@H](O[C@H]7[C@H](O)[C@@H](O)[C@@H](O[C@H]8[C@H](O)[C@@H](O)[C@@H](O[C@H]1[C@H](O)[C@H]2O)O[C@@H]8CO)O[C@@H]7CO)O[C@@H]6CO)O[C@@H]5CO)O[C@@H]4CO)O[C@@H]3CO", "note": "[β-cyclodextrin, reference compound]", "values": [
      {"measurement": "cytotoxicity", "setting": "[1]", "result": "cytotoxic, killing half of the cell population"},
      {"measurement": "LXR mRNA", "setting": "[2]", "result": "No significant changes"},
      {"measurement": "SREBP-2 mRNA", "setting": "[3]", "result": "increased for the lowest dose of β-cyclodextrin and reached a plateau"}
    ]},
    {"compound": "CER-001: engineered recombinant human apolipoprotein A-I HDL with sphingomyelin and DPPG; protein-to-phospholipid ratio 1:2.7, 97% Sph and 3% DPPG", "values": [
      {"measurement": "carotid ABCA1 expression", "setting": "[4]; 5 mg/kg", "result": "did not affect the ABCA1 expression"},
      {"measurement": "carotid ABCA1 content", "setting": "[4]; 50 mg/kg", "result": "decrease"},
      {"measurement": "liver SR-BI protein level", "setting": "[5]", "result": "no significant changes"},
      {"measurement": "potency (plasma total cholesterol increase) relative to ETC-216", "setting": "[6]; CER-001 at 3 mg/kg", "result": "comparable to ETC-216 at 15 mg/kg"},
      {"measurement": "plasma apolipoprotein A-I after IV administration", "setting": "[6]; [10]", "result": "increases in a dose-dependent manner"},
      {"measurement": "plasma phospholipids after IV administration", "setting": "[6]; [10]", "result": "increase in a dose dependent manner"},
      {"measurement": "plasma total cholesterol after IV administration", "setting": "[6]; [10]", "result": "increases in a dose-dependent manner"},
      {"measurement": "slope ratio of phospholipids and ApoA-I dose response curves", "setting": "[6]; in vivo", "result": 2.8},
      {"measurement": "SR-BI mRNA level", "setting": "[7]", "result": "No significant decrease"},
      {"measurement": "change in TAV and PAV versus placebo", "setting": "[8]; baseline PAV equal to or greater than 30, mITT, 3 mg/kg", "result": "obtained statistical significance versus placebo"},
      {"measurement": "PAV LS mean change (ANCOVA)", "setting": "[8]; [11]", "result": "−0.963"},
      {"measurement": "TAV LS mean change (ANCOVA)", "setting": "[8]; [11]", "result": "−6.258"},
      {"measurement": "PAV LS mean change (ANCOVA)", "setting": "[8]; [12]", "result": "−0.619"},
      {"measurement": "TAV LS mean change (ANCOVA)", "setting": "[8]; [12]", "result": "−3.429"},
      {"measurement": "PAV LS mean change (ANCOVA)", "setting": "[8]; [13]", "result": "+0.177"},
      {"measurement": "TAV LS mean change (ANCOVA)", "setting": "[8]; [13]", "result": "−2.726"},
      {"measurement": "shape of dose-effect curve", "setting": "[8]; humans, 3, 6, 12 mg/kg", "result": "inverted U-shaped dose-effect curve"},
      {"measurement": "reduction in PAV and TAV versus baseline", "setting": "[8]; mITT population", "result": "statistically significant and comparable magnitude of reduction in PAV and TAV versus baseline"},
      {"measurement": "TAV and PAV versus placebo", "setting": "[8]; mPP population, 3 mg/kg", "result": "did achieve nominal statistical significance versus placebo"},
      {"measurement": "cholesterol mobilization", "setting": "[9]; healthy volunteers, single IV doses 0.25 to 45 mg/kg", "result": "increased cholesterol mobilization with increasing doses"},
      {"measurement": "dose level above which a transient increase of triglycerides was observed", "setting": "[9]; human, in vivo, iv", "result": "greater than 15 mg/kg"}
    ]}
  ]
}
